Assay results from patent US6492174B1, “Methods of initiating embryogenic cultures in plants” (Institute of Paper Science & Technology, priority 2000, dated 2002).

What was measured:
Assay type in all cases: cell-based
[1] = test system: Loblolly pine megagametophytes; assay: Vacuum infiltration of abscisic acid solutions (liquid media #1036) before culture on solid media #1042, eight weeks
Description: In this experiment the effects of megagametophyte pre-treatment by vacuum infiltration with abscisic acid solutions of varying concentration was investigated. The explants were megagametophytes from summer cones of four open pollinated individual trees, representing multiplicity of genotypes. The seeds contained Stage 2-4 zygotic embryos. Megagametophytes were excised from sterilized seeds, as described in Example 4.
Prior to culturing, the megagametophytes were vacuum infiltrated with liquid growth media #1036 (see Table 47) containing 0, 1, 5, or 25 ppm abscisic acid (See Table 19 for treatment media compositions). After vacuum infiltration, each megagametophyte was placed on 2 ml solid culture media #1042 (see Table 47 for composition) in a single well on a culture well plate.
One possible explanation for the results is that vacuum treatment may damage the megagametophytes.

[2] = test system: Loblolly pine megagametophytes; assay: Loblolly pine extrusion and initiation immersed in liquid media #1071 with brassinolide, eight weeks
Experimental: In Examples 4 and 5, the effect of varying brassinolide concentration in a solid media was measured. This experiment was conducted to determine the optimal concentration of brassinolide in a liquid media. The explants in this experiment were megagametophytes isolated from the cones of four open-pollinated trees representing a multiplicity of genotypes. The seeds contained Stage 2-4 zygotic embryos. Seeds were sterilized as described in Example 1. Seed coats were split and the megagametophytes were isolated by removing integuments and nucellus. Isolated megagametophytes were wholly immersed in liquid media #1071 (Table 47) containing varying concentrations of brassinolide. The five treatments consisted of media containing zero, 0.05, 0.1, 0.15 and 0.2 μM brassinolide (Table 16). Two ml of each media was poured into wells on culture well plates. […]. The experiment consisted of four replications per treatment, per cone collection.
Nevertheless, overall extrusion frequency was increased in the brassinolide treatments as compared to the control (Table 17). Initiation frequency was increased by the addition of brassinolide from 0.05 to 0.2 μM (Table 18). […] Nevertheless, one of skill in the art could empirically determine the upper and lower effective concentration of brassinolide which is effective in promoting initiation in a liquid media.

[3] = test system: Loblolly pine megagametophytes; assay: Loblolly pine extrusion and initiation on solid media #1042 (no ABA) with brassinolide, eight weeks
Experimental: The promotion of extrusion and initiation in Example 4 was obtained on media containing both brassinolide and abscisic acid (ABA). ABA is known in the art to enhance initiation. This experiment was conducted to determine if brassinolide will promote initiation independently of ABA. The explants were megagametophytes from summer cone collections from four individual trees, each representing a distinct genotype. The seeds contained Stage 2-4 zygotic embryos. Megagametophytes were excised from sterilized seeds, as described in Example 4.
The control media was solid media #1042, which contains no ABA or brassinolide (Table 47). Treatment media were composed of #1042 plus 0, 0.025, 0.10 or 0.25 μM brassinolide (Table 13). While still liquid, 2 ml media was poured into wells on a culture well plate and allowed to solidify. […] Each replication consisted of ten megagametophytes in adjacent wells on a single well plate. Plates were wrapped with PARAFILM and incubated at 23-24° C. in the dark.
Both extrusion (Table 14) and initiation (Table 15) frequencies were higher in the brassinolide treatments than in the control. There was no clear brassinolide concentration effect within the tested range. […] One of skill in the art can empirically determine the optimal effective upper and lower brassinolide concentration limits for solid media.

[4] = genotype 5-1207, treatment 2, 1 ppm abscisic acid
[5] = genotype 5-1207, treatment 3, 5 ppm abscisic acid
[6] = genotype 5-1207, treatment 4, 25 ppm abscisic acid
[7] = genotype 7-1051, treatment 2, 1 ppm abscisic acid
[8] = genotype 7-1051, treatment 3, 5 ppm abscisic acid
[9] = genotype 7-1051, treatment 4, 25 ppm abscisic acid
[10] = genotype 11-1055, treatment 2, 1 ppm abscisic acid
[11] = genotype 11-1055, treatment 3, 5 ppm abscisic acid
[12] = genotype 11-1055, treatment 4, 25 ppm abscisic acid
[13] = genotype 11-1507, treatment 2, 1 ppm abscisic acid
[14] = genotype 11-1507, treatment 3, 5 ppm abscisic acid
[15] = genotype 11-1507, treatment 4, 25 ppm abscisic acid
[16] = total, treatment 2, 1 ppm abscisic acid
[17] = total, treatment 3, 5 ppm abscisic acid
[18] = total, treatment 4, 25 ppm abscisic acid

## CC1=CC(=O)CC(C)(C)C1(O)/C=C/C(C)=C\C(=O)O (stereo not shown) [ABA, 5-(1-hydroxy-2,6,6,-trimethyl-4-oxo-2-cyclohexen-1-yl)-3-methyl-2,4-penta dienoic acid]
[1]; [4]
  % of Megagametophytes Extruding: 23.3 (14.5) %
  % of Megagametophytes Initiating: 20 (11.5) %
[1]; [5]
  % of Megagametophytes Extruding: 10.0 (5.8) %
  % of Megagametophytes Initiating: 10 (5.8) %
[1]; [6]
  % of Megagametophytes Extruding: 13.3 (13.3) %
  % of Megagametophytes Initiating: 10 (10.0) %
[1]; [7]
  % of Megagametophytes Extruding: 33.3 (8.8) %
  % of Megagametophytes Initiating: 6.7 (3.3) %
[1]; [8]
  % of Megagametophytes Extruding: 30.0 (11.5) %
  % of Megagametophytes Initiating: 10 (5.8) %
[1]; [9]
  % of Megagametophytes Extruding: 56.7 (12.0) %
  % of Megagametophytes Initiating: 13.3 (8.8) %
[1]; [10]
  % of Megagametophytes Extruding: 53.3 (3.3) %
  % of Megagametophytes Initiating: 16.7 (3.3) %
[1]; [11]
  % of Megagametophytes Extruding: 66.7 (12.0) %
  % of Megagametophytes Initiating: 30 (11.5) %
[1]; [12]
  % of Megagametophytes Extruding: 36.7 (3.3) %
  % of Megagametophytes Initiating: 13.3 (3.3) %
[1]; [13]
  % of Megagametophytes Extruding: 16.7 (6.7) %
  % of Megagametophytes Initiating: 6.7 (6.7) %
[1]; [14]
  % of Megagametophytes Extruding: 6.7 (3.3) %
  % of Megagametophytes Initiating: 6.7 (3.3) %
[1]; [15]
  % of Megagametophytes Extruding: 6.7 (3.3) %
  % of Megagametophytes Initiating: 0 (0.0) %
[1]; [16]
  % of Megagametophytes Extruding: 31.7%
  % of Megagametophytes Initiating: 12.5%
[1]; [17]
  % of Megagametophytes Extruding: 28.4%
  % of Megagametophytes Initiating: 14.2%
[1]; [18]
  % of Megagametophytes Extruding: 28.4%
  % of Megagametophytes Initiating: 9.2%
[1]; vacuum infiltration, 1, 5 or 25 ppm
  promotion of extrusion or initiation: did not promote extrusion or initiation

## CC(C)[C@H](C)[C@@H](O)[C@H](O)[C@@H](C)[C@H]1CC[C@H]2[C@@H]3COC(=O)[C@H]4C[C@H](O)[C@H](O)C[C@]4(C)[C@H]3CC[C@]12C [brassinolide]
[2]; brassinolide from 0.05 to 0.2 μM, liquid media
  Initiation frequency vs control: increased
[2]; genotype FN, 0.05 μM Br
  % of Megagametophytes Extruding: 32.5 (12.5) %
  % of Megagametophytes Initiating: 20.0 (10.8) %
[2]; genotype FN, 0.10 μM Br
  % of Megagametophytes Extruding: 15.0 (6.5) %
  % of Megagametophytes Initiating: 10.0 (4.1) %
[2]; genotype FN, 0.15 μM Br
  % of Megagametophytes Extruding: 40.0 (20.4) %
  % of Megagametophytes Initiating: 20.0 (12.2) %
[2]; genotype FN, 0.2 μM Br
  % of Megagametophytes Extruding: 50.0 (18.3) %
  % of Megagametophytes Initiating: 35.0 (15.0) %
[2]; genotype FO, 0.05 μM Br
  % of Megagametophytes Extruding: 0.0 (0) %
  % of Megagametophytes Initiating: 0 (0) %
[2]; genotype FO, 0.10 μM Br
  % of Megagametophytes Extruding: 0.0 (0) %
  % of Megagametophytes Initiating: 0 (0) %
[2]; genotype FO, 0.15 μM Br
  % of Megagametophytes Extruding: 0.0 (0) %
  % of Megagametophytes Initiating: 0 (0) %
[2]; genotype FO, 0.2 μM Br
  % of Megagametophytes Extruding: 0.0 (0) %
  % of Megagametophytes Initiating: 0 (0) %
[2]; genotype FX, 0.05 μM Br
  % of Megagametophytes Extruding: 17.5 (6.3) %
  % of Megagametophytes Initiating: 17.5 (6.3) %
[2]; genotype FX, 0.10 μM Br
  % of Megagametophytes Extruding: 27.5 (12.5) %
  % of Megagametophytes Initiating: 25.0 (10.4) %
[2]; genotype FX, 0.15 μM Br
  % of Megagametophytes Extruding: 15.0 (5.0) %
  % of Megagametophytes Initiating: 12.5 (4.8) %
[2]; genotype FX, 0.2 μM Br
  % of Megagametophytes Extruding: 17.5 (4.8) %
  % of Megagametophytes Initiating: 17.5 (4.8) %
[2]; genotype FZ, 0.05 μM Br
  % of Megagametophytes Extruding: 0.0 (0) %
  % of Megagametophytes Initiating: 0 (0) %
[2]; genotype FZ, 0.10 μM Br
  % of Megagametophytes Extruding: 2.5 (2.5) %
  % of Megagametophytes Initiating: 2.5 (2.5) %
[2]; genotype FZ, 0.15 μM Br
  % of Megagametophytes Extruding: 2.5 (2.5) %
  % of Megagametophytes Initiating: 2.5 (2.5) %
[2]; genotype FZ, 0.2 μM Br
  % of Megagametophytes Extruding: 0.0 (0) %
  % of Megagametophytes Initiating: 0 (0) %
[2]; total, 0.05 μM Br
  % of Megagametophytes Extruding: 12.5%
  % of Megagametophytes Initiating: 9.4%
[2]; total, 0.10 μM Br
  % of Megagametophytes Extruding: 11.3%
  % of Megagametophytes Initiating: 9.4%
[2]; total, 0.15 μM Br
  % of Megagametophytes Extruding: 14.4%
  % of Megagametophytes Initiating: 8.8%
[2]; total, 0.2 μM Br
  % of Megagametophytes Extruding: 16.9%
  % of Megagametophytes Initiating: 13.1%
[3]; 0.025, 0.10 or 0.25 μM brassinolide, absence of ABA
  extrusion and initiation frequencies vs control: higher
[3]; genotype 5-1207, 0.025 μM Br
  % of Megagametophytes Extruding: 38.3 (15.9) %
  % of Megagametophytes Initiating: 27.5 (16.3) %
[3]; genotype 5-1207, 0.10 μM Br
  % of Megagametophytes Extruding: 30.0 (13.3) %
  % of Megagametophytes Initiating: 20 (15.3) %
[3]; genotype 5-1207, 0.25 μM Br
  % of Megagametophytes Extruding: 20.0 (10.0) %
  % of Megagametophytes Initiating: 16.7 (8.8) %
[3]; genotype 7-1051, 0.025 μM Br
  % of Megagametophytes Extruding: 43.3 (8.8) %
  % of Megagametophytes Initiating: 20 (20.0) %
[3]; genotype 7-1051, 0.10 μM Br
  % of Megagametophytes Extruding: 46.7 (13.3) %
  % of Megagametophytes Initiating: 26.7 (8.8) %
[3]; genotype 7-1051, 0.25 μM Br
  % of Megagametophytes Extruding: 53.3 (12.0) %
  % of Megagametophytes Initiating: 16.7 (8.8) %
[3]; genotype 11-1055, 0.025 μM Br
  % of Megagametophytes Extruding: 66.7 (3.3) %
  % of Megagametophytes Initiating: 53.3 (6.7) %
[3]; genotype 11-1055, 0.10 μM Br
  % of Megagametophytes Extruding: 63.3 (13.3) %
  % of Megagametophytes Initiating: 46.7 (14.5) %
[3]; genotype 11-1055, 0.25 μM Br
  % of Megagametophytes Extruding: 70.0 (11.5) %
  % of Megagametophytes Initiating: 53.3 (8.8) %
[3]; genotype 11-1507, 0.025 μM Br
  % of Megagametophytes Extruding: 26.7 (6.7) %
  % of Megagametophytes Initiating: 13.3 (3.3) %
[3]; genotype 11-1507, 0.10 μM Br
  % of Megagametophytes Extruding: 36.7 (3.3) %
  % of Megagametophytes Initiating: 16.7 (8.8) %
[3]; genotype 11-1507, 0.25 μM Br
  % of Megagametophytes Extruding: 23.3 (3.3) %
  % of Megagametophytes Initiating: 13.3 (3.3) %
[3]; total, 0.025 μM Br
  % of Megagametophytes Extruding: 43.8%
  % of Megagametophytes Initiating: 28.5%
[3]; total, 0.10 μM Br
  % of Megagametophytes Extruding: 44.2%
  % of Megagametophytes Initiating: 27.5%
[3]; total, 0.25 μM Br
  % of Megagametophytes Extruding: 41.7%
  % of Megagametophytes Initiating: 25.0%
